In ChEMBL document CHEMBL1201862, “PubChem BioAssay data set” (2004):
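A five-concentration, 48-hour dose response in 96-well plates underlies each endpoint, interpolated linearly between surrounding concentrations. The concentration for 50% growth inhibition is given as GI50.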 Active and inactive are the calls of the source. Rule as the data show it: active = GI50 up to about 1.1 µM and inactive = higher.

Tests used:
Experiment in all cases: NCI anticancer screen, dose series, 48 h
[1] = system: Hs-578T
[2] = system: SNB-75
[3] = system: TK-10
[4] = system: SN12C
[5] = system: M14
[6] = system: SR
[7] = system: Malme-3M
[8] = system: MDA-N
[9] = system: OVCAR-4
[10] = system: SK-MEL-2
[11] = system: SK-OV-3
[12] = system: IGROV-1
[13] = system: SNB-19
[14] = system: 786-0
[15] = system: NCI-H23
[16] = system: SK-MEL-28
[17] = system: NCI-H522
[18] = system: NCI/ADR-RES
[19] = system: MOLT-4
[20] = system: UO-31
[21] = system: COLO 205
[22] = system: CCRF-CEM
[23] = system: MCF7
[24] = system: HT-29
[25] = system: A498
[26] = system: UACC-257
[27] = system: CAKI-1
[28] = system: HOP-62
[29] = system: UACC-62
[30] = system: HL-60
[31] = system: NCI-H226
[32] = system: MDA-MB-231
[33] = system: OVCAR-8
[34] = system: EKVX
[35] = system: U-251
[36] = system: K562
[37] = system: PC-3
[38] = system: DU-145
[39] = system: RPMI-8226
[40] = system: SW-620
[41] = system: HOP-92
[42] = system: SK-MEL-5
[43] = system: HCC 2998
[44] = system: A549
[45] = system: SF-295
[46] = system: BT-549
[47] = system: MDA-MB-435
[48] = system: LOX IMVI
[49] = system: T47D
[50] = system: HCT-116
[51] = system: SF-268
[52] = system: RXF 393
[53] = system: KM12
[54] = system: HCT-15
[55] = system: OVCAR-5
[56] = system: ACHN
[57] = system: NCI-H460
[58] = system: OVCAR-3
[59] = system: SF-539
[60] = system: KM-20L2
[61] = system: DMS-114
[62] = system: DMS-273
[63] = system: LXFL 529
[64] = system: SNB-78
[65] = system: M19-MEL

For COc1cc(Nc2n[nH]c(NS(=O)(=O)c3cc(C)c(Cl)cc3S)n2)cc(OC)c1OC, the GI50 [1] was > 100 µM (inactive), the GI50 [2] was > 100 µM (inactive) and the GI50 [3] was > 100 µM (inactive). For the same molecule, the GI50 [4] was > 100 µM (inactive), the GI50 [5] was > 100 µM (inactive) and the GI50 [6] was > 100 µM (inactive). The GI50 [7] was > 100 µM (inactive), the GI50 [8] was > 100 µM (inactive) and the GI50 [9] was > 100 µM (inactive). The GI50 [10] was > 100 µM (inactive), the GI50 [11] was > 100 µM (inactive) and the GI50 [12] was > 100 µM (inactive). For the same molecule, the GI50 [13] was > 100 µM (inactive), the GI50 [14] was > 100 µM (inactive) and the GI50 [15] was > 100 µM (inactive). The GI50 [16] was > 100 µM (inactive), the GI50 [17] was > 100 µM (inactive) and the GI50 [18] was > 100 µM (inactive). The GI50 [19] was > 100 µM (inactive), the GI50 [20] was > 100 µM (inactive) and the GI50 [21] was > 100 µM (inactive). For the same molecule, the GI50 [22] was > 100 µM (inactive), the GI50 [23] was > 100 µM (inactive) and the GI50 [24] was > 100 µM (inactive). For the same molecule, the GI50 [25] was > 100 µM (inactive), the GI50 [26] was > 100 µM (inactive) and the GI50 [27] was > 100 µM (inactive). The GI50 [28] was > 100 µM (inactive), the GI50 [29] was > 100 µM (inactive) and the GI50 [30] was > 100 µM (inactive). The GI50 [31] was > 100 µM (inactive), the GI50 [32] was > 100 µM (inactive) and the GI50 [33] was > 100 µM (inactive). For the same molecule, the GI50 [34] was > 100 µM (inactive), the GI50 [35] was > 100 µM (inactive) and the GI50 [36] was > 100 µM (inactive). The GI50 [37] was > 100 µM (inactive), the GI50 [38] was > 100 µM (inactive) and the GI50 [39] was > 100 µM (inactive). For the same molecule, the GI50 [40] was > 100 µM (inactive), the GI50 [41] was > 100 µM (inactive) and the GI50 [42] was > 100 µM (inactive). For the same molecule, the GI50 [43] was > 100 µM (inactive), the GI50 [44] was > 100 µM (inactive) and the GI50 [45] was > 100 µM (inactive). The GI50 [46] was > 100 µM (inactive), the GI50 [47] was > 100 µM (inactive) and the GI50 [48] was > 100 µM (inactive). The GI50 [49] was > 100 µM (inactive), the GI50 [50] was > 100 µM (inactive) and the GI50 [51] was > 100 µM (inactive). For the same molecule, the GI50 [52] was > 100 µM (inactive), the GI50 [53] was > 100 µM (inactive) and the GI50 [54] was greater than 100 µM. The GI50 [55] was > 100 µM (inactive), the GI50 [56] was > 100 µM (inactive) and the GI50 [57] was > 100 µM (inactive). For the same molecule, the GI50 [58] was > 100 µM (inactive) and the GI50 [59] was > 100 µM (inactive).
With COC(=O)c1cc(Cl)ccc1NC(=O)C1CCCCC1 the GI50 [3] was 92.7 µM (inactive), the GI50 [4] was 74.6 µM (inactive) and the GI50 [6] was > 100 µM (inactive). The GI50 [7] was > 100 µM (inactive), the GI50 [60] was > 100 µM (inactive) and the GI50 [10] was > 100 µM (inactive). The GI50 [13] was > 100 µM (inactive), the GI50 [14] was > 100 µM (inactive) and the GI50 [15] was > 100 µM (inactive). For the same molecule, the GI50 [16] was > 100 µM (inactive), the GI50 [19] was 23.2 µM (inactive) and the GI50 [20] was 17.6 µM (inactive). For the same molecule, the GI50 [21] was > 100 µM (inactive), the GI50 [61] was > 100 µM (inactive) and the GI50 [24] was > 100 µM (inactive). The GI50 [26] was > 100 µM (inactive), the GI50 [62] was > 100 µM (inactive) and the GI50 [63] was > 100 µM (inactive). For the same molecule, the GI50 [31] was > 100 µM (inactive), the GI50 [33] was > 100 µM (inactive) and the GI50 [34] was > 100 µM (inactive). For the same molecule, the GI50 [35] was > 100 µM (inactive), the GI50 [36] was > 100 µM (inactive) and the GI50 [39] was > 100 µM (inactive). The GI50 [40] was > 100 µM (inactive), the GI50 [41] was 22.8 µM (inactive) and the GI50 [43] was > 100 µM (inactive). The GI50 [44] was > 100 µM (inactive), the GI50 [45] was > 100 µM (inactive) and the GI50 [50] was > 100 µM (inactive). The GI50 [51] was 48.1 µM (inactive), the GI50 [52] was 33.1 µM (inactive) and the GI50 [53] was > 100 µM (inactive). The GI50 [54] was greater than 100 µM, the GI50 [55] was > 100 µM (inactive) and the GI50 [56] was > 100 µM (inactive). For the same molecule, the GI50 [64] was > 100 µM (inactive) and the GI50 [59] was > 100 µM (inactive).
CC1(C(=O)Nc2ccc3ccccc3c2)CC2(C)CC(C)(C1)C(O)NC2=O (stereo not given) was tested, and the GI50 [3] was > 100 µM (inactive), the GI50 [5] was > 100 µM (inactive) and the GI50 [6] was > 100 µM (inactive). The GI50 [11] was > 100 µM (inactive), the GI50 [12] was > 100 µM (inactive) and the GI50 [13] was > 100 µM (inactive). For the same molecule, the GI50 [15] was > 100 µM (inactive), the GI50 [16] was > 100 µM (inactive) and the GI50 [17] was > 100 µM (inactive). The GI50 [19] was > 100 µM (inactive), the GI50 [20] was > 100 µM (inactive) and the GI50 [65] was > 100 µM (inactive). The GI50 [22] was > 100 µM (inactive), the GI50 [24] was > 100 µM (inactive) and the GI50 [25] was > 100 µM (inactive). The GI50 [26] was 81.5 µM (inactive), the GI50 [28] was > 100 µM (inactive) and the GI50 [29] was > 100 µM (inactive). The GI50 [30] was > 100 µM (inactive), the GI50 [62] was > 100 µM (inactive) and the GI50 [33] was 86.9 µM (inactive). The GI50 [34] was > 100 µM (inactive), the GI50 [35] was > 100 µM (inactive) and the GI50 [41] was > 100 µM (inactive). For the same molecule, the GI50 [44] was > 100 µM (inactive), the GI50 [45] was > 100 µM (inactive) and the GI50 [51] was > 100 µM (inactive). For the same molecule, the GI50 [52] was > 100 µM (inactive), the GI50 [53] was > 100 µM (inactive) and the GI50 [55] was > 100 µM (inactive). The GI50 [56] was > 100 µM (inactive), the GI50 [64] was > 100 µM (inactive) and the GI50 [57] was > 100 µM (inactive).
